Ki and IC50 data for 29 compounds are collected here from US10988477B2 (Merck Patent GmbH, priority 2018, dated 2021).

In test [1] the target is GCN2 kinase (Homo sapiens, UniProt Q9P2K8). As to the kind of experiment: GCN2 enzyme inhibition assay (Transcreener ADP2 fluorescence polarization). As to conditions: 280 μM ATP. Type of test: biochemical. The essentials: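 Human GCN2 (4 nM) preincubated 10 min with compound (0–8 μM) and 200 μM (RS)7 peptide in Tris-HCl pH 7.5, NaCl, MgCl2, DTT. Reaction started with 280 μM ATP, run 1 h at 25 °C. ADP detected by Transcreener fluorescence polarization. IC50 and Ki(app) fitted by tight-binding algorithm.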
Sequence of GCN2 kinase (Q9P2K8 whole entry): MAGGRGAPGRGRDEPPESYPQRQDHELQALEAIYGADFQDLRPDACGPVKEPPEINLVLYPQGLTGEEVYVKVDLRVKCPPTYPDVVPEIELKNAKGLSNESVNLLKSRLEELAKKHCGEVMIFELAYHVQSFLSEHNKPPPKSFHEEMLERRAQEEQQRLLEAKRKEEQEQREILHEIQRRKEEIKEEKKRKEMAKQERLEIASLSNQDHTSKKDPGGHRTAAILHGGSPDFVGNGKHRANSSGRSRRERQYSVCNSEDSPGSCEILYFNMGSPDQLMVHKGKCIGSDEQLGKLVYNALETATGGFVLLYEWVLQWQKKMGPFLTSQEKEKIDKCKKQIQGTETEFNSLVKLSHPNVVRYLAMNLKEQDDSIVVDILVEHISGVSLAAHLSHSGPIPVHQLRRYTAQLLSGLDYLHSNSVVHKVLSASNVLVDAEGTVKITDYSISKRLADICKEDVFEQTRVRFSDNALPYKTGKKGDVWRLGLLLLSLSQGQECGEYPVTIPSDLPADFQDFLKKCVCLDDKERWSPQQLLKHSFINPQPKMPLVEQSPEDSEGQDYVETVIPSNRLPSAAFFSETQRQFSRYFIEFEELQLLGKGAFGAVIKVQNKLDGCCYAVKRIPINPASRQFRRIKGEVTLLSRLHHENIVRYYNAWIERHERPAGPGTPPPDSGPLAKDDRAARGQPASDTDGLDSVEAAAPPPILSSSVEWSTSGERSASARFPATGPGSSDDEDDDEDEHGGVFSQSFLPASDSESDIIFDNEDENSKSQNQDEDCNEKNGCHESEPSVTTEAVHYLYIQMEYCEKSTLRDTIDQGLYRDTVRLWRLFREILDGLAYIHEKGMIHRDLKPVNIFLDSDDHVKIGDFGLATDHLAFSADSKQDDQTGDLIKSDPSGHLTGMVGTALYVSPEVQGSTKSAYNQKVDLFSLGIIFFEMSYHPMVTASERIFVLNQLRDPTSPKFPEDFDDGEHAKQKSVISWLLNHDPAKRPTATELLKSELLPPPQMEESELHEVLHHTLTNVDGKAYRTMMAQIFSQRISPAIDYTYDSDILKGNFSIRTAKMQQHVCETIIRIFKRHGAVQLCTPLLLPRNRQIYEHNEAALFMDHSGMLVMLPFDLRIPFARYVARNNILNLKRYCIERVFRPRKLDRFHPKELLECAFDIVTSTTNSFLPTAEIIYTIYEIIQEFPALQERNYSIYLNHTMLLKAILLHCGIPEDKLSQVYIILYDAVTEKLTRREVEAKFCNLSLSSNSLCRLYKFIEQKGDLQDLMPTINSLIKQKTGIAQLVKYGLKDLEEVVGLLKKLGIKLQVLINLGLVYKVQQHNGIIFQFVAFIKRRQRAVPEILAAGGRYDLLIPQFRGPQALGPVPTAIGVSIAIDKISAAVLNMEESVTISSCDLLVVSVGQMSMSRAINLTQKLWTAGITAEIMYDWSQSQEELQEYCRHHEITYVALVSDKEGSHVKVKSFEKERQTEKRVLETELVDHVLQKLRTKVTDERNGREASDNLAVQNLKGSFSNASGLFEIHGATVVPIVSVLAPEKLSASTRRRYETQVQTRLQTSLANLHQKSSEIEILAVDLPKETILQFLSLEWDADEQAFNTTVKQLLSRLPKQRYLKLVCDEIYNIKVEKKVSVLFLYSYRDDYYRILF

Test [2] deals with intracellular GCN2 (phosphorylation of the GCN2 substrate eIF2α) (Homo sapiens, UniProt Q9P2K8). Description: GCN2 cellular inhibition assay (AlphaScreen SureFire P-eIF2α Ser51, borrelidin-treated U2OS cells). Type of test: cell-based. As to conditions: biomarker assay, phosphorylated eIF2α Ser51 in borrelidin-treated U2OS cells. The method, boiled down: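 U2OS cells adhered overnight, then treated with compounds (4-fold serial dilutions from 40 μM final) plus borrelidin 10 μM final for 1 h at 37 °C. Lysate eIF2α Ser51 phosphorylation measured by AlphaScreen SureFire. Percent inhibition calculated relative to borrelidin-only wells.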
Sequence of intracellular GCN2 (phosphorylation of the GCN2 substrate eIF2α) (Q9P2K8 whole entry): as above
In general terms: In Alpha technology, singlet oxygen from a donor bead excites a nearby acceptor bead.

[3] abbreviates: Enzyme activity for compounds of Formula IV, Ki(app), 25° C.
The mark [4] stands for this setting: compounds of Formula II, 4 nM GCN2 kinase.

Counter-ions that a name gives are not always drawn.

As usually defined, the IC50 is the concentration that gives 50% inhibition. Low readings indicate greater potency, high ones weaker potency. With `Cc1[nH]ncc1C1CCCN(c2ccnc(-c3cnc4cnc(C(F)(F)F)cn34)n2)C1` (single isomer, unassigned) [IV-471, 3-(4-(3-(5-Methyl-1H-pyrazol-4-yl)piperidin-1-yl)pyrimidin-2-yl)-6-(trifluoromethyl)imidazo[1,2-a]pyrazine], the Ki in test [1] (setting [3]) was in the range of 0.01 to 0.1 µM. In test [2] (compounds of Formula IV), this compound registered a half-inhibitory concentration (IC50) of over 5 µM.

In turn, `NC(=O)Cc1cccc(-c2ccnc(-c3cnc4cnc(C(F)F)cn34)n2)c1` [IV-155, 2-(3-(2-(6-(Difluoromethyl)imidazo[1,2-a]pyrazin-3-yl)pyrimidin-4-yl)phenyl)acetamide] came in with a Ki in test [1] (setting [3]) of 0.1 to 1 µM. The 50% inhibitory concentration (IC50) in test [2] (compounds of Formula IV) is over 5 µM.

In test [1] (setting [4]), `Clc1ccc2ncc(-c3ccnc(N4CCC5CNCC5C4)c3)n2n1` (stereo not shown) [II-188] registered a Ki of 0.01 to 1 µM. In test [2] (compounds of Formula II), the IC50 lay in the range of 0.5 to 5 µM.

`COc1cc(N2CC(C)NC(c3cn[nH]c3)C2C)nc(-c2cnc3cnc(C(F)(F)F)cn23)n1` (stereo not shown) [IV-593, 3-(4-(2,5-Dimethyl-3-(1H-pyrazol-4-yl)piperazin-1-yl)-6-methoxypyrimidin-2-yl)-6-(trifluoromethyl)imidazo[1,2-a]pyrazine]: the Ki in test [1] (setting [3]) was under 0.01 µM. In test [2] (compounds of Formula IV), this compound showed a half-maximal inhibitory concentration (IC50) of 0.5 to 5 µM.

`CC(=O)N1CCN(c2cccc(-c3cnc4cnc(C(N)=O)cn34)n2)CC1` [IV-184, 3-(6-(4-Acetylpiperazin-1-yl)pyridin-2-yl)imidazo[1,2-a]pyrazine-6-carboxamide] returned a Ki in test [1] (setting [3]) of 0.01 to 0.1 µM. For the same compound, in test [2] (compounds of Formula IV), the half-inhibitory concentration (IC50) was under 0.5 µM.

`NS(=O)(=O)NCC1CCN(c2cc(-c3cnc4ccc(C(F)F)nn34)ncn2)C1` (stereo not shown) [II-415, 1-((1-(6-(6-(Difluoromethyl)imidazo[1,2-b]pyridazin-3-yl)pyrimidin-4-yl)pyrrolidin-3-yl)methyl)sulfuric diamide] returned a Ki in test [1] (setting [4]) of 0.01 to 1 µM. Also, the half-maximal inhibitory concentration (IC50) in test [2] (compounds of Formula II) is over 5 µM.

For the compound `C[C@H]1[C@@H](CNS(C)(=O)=O)OC(C)(C)CN1c1cc(-c2cnc3ccc(C(F)F)nn23)ncn1` (single isomer, unassigned) [II-490], the Ki in test [1] (setting [4]) was under 0.01 µM. In test [2] (compounds of Formula II), this compound came in with an IC50 of under 0.5 µM.

As to `OC1CCN(c2ccnc(-c3cnc4cnc(C(F)F)cn34)n2)C1` (stereo not shown) [IV-72, 1-(2-(6-(Difluoromethyl)imidazo[1,2-a]pyrazin-3-yl)pyrimidin-4-yl)pyrrolidin-3-ol], the Ki in test [1] (setting [3]) was 0.1 to 1 µM. In addition, the IC50 in test [2] (compounds of Formula IV) is over 5 µM.

The compound `NS(=O)(=O)N1CCCN(c2ccnc(-c3cnc4cnc(C(F)F)cn34)n2)CC1` [IV-101, 4-(2-(6-(Difluoromethyl)imidazo[1,2-a]pyrazin-3-yl)pyrimidin-4-yl)-1,4-diazepane-1-sulfonamide] had a Ki in test [1] (setting [3]) of 0.1 to 1 µM. This compound came in with an IC50 in test [2] (compounds of Formula IV) of over 5 µM.

The compound `CS(=O)(=O)N1CCC2(CC1)CN(c1cc(-c3cnc4ccc(C(F)F)nn34)ncn1)CCO2` [II-287, 4-(6-(6-(Difluoromethyl)imidazo[1,2-b]pyridazin-3-yl)pyrimidin-4-yl)-9-(methylsulfonyl)-1-oxa-4,9-diazaspiro[5.5]undecane] yielded a Ki in test [1] (setting [4]) of 0.01 to 1 µM. The same compound came in with a half-maximal inhibitory concentration (IC50) in test [2] (compounds of Formula II) of over 5 µM.

On to `O=C(NCCO)C1CCCN(c2cc(-c3cnc4ccc(C(F)F)nn34)ncn2)C1` (stereo not shown) [II-191, 1-(6-(6-(Difluoromethyl)imidazo[1,2-b]pyridazin-3-yl)pyrimidin-4-yl)-N-(2-hydroxyethyl)piperidine-3-carboxamide], for which, in test [1] (setting [4]), the Ki lay in the range of 0.01 to 1 µM. This compound also came in with a concentration for half-maximal inhibition (IC50) in test [2] (compounds of Formula II) of over 5 µM.

`CN(C)S(=O)(=O)NCC1CCCN(c2cc(-c3cnc4ccc(C(F)F)nn34)ncn2)C1` (stereo not shown) [II-348, 3-((1-(6-(6-(Difluoromethyl)imidazo[1,2-b]pyridazin-3-yl)pyrimidin-4-yl)piperidin-3-yl)methyl)-1,1-dimethylsulfuric Diamide] showed a Ki in test [1] (setting [4]) of 0.01 to 1 µM. In test [2] (compounds of Formula II), this compound had an IC50 of 0.5 to 5 µM.

In test [1] (setting [3]), `CC1CN(c2ccnc(-c3cnc4cnc(Br)cn34)n2)C(C)C(c2c[nH]cn2)N1` (single isomer, unassigned) [IV-377, 3-(4-(3-(1H-Imidazol-4-yl)-2,5-dimethylpiperazin-1-yl)pyrimidin-2-yl)-6-bromoimidazo[1,2-a]pyrazine] registered a Ki of 0.1 to 1 µM. The half-maximal inhibitory concentration (IC50) in test [2] (compounds of Formula IV) lay in the range of 0.5 to 5 µM.

For the compound `CC1C(CNS(C)(=O)=O)NCCN1c1cc(-c2cnc3ccc(C(F)F)nn23)ncn1` (stereo not shown) [II-313, N-[[4-[6-[6-(Difluoromethyl)imidazo[1,2-b]pyridazin-3-yl]pyrimidin-4-yl]-3-methyl-piperazin-2-yl]methyl]methanesulfonamide], the Ki in test [1] (setting [4]) was under 0.01 µM. In test [2] (compounds of Formula II), this compound returned an IC50 of under 0.5 µM.

`C[C@H]1[C@@H](CNS(C)(=O)=O)C(F)(F)[C@@H](C)CN1c1cc(-c2cnc3ccc(C(F)F)nn23)ncn1` (single isomer, unassigned) [II-472] showed a Ki in test [1] (setting [4]) of under 0.01 µM. The same compound had an IC50 in test [2] (compounds of Formula II) of under 0.5 µM.

In turn, `FC(F)(F)c1cn2c(-c3nccc(N4CCC(c5c[nH]nc5C(F)(F)F)C4)n3)cnc2cn1` (stereo not shown) [IV-572, 6-(Trifluoromethyl)-3-(4-(3-(3-(trifluoromethyl)-1H-pyrazol-4-yl)pyrrolidin-1-yl)pyrimidin-2-yl)imidazo[1,2-a]pyrazine] displayed a Ki in test [1] (setting [3]) of under 0.01 µM. The IC50 in test [2] (compounds of Formula IV) was 0.5 to 5 µM.

For `CS(=O)(=O)NCC1CC(O)CN(c2cc(-c3cnc4ccc(C(F)F)nn34)ncn2)C1` (stereo not shown) [II-12, N-((1-(6-(6-(Difluoromethyl)imidazo[1,2-b]pyridazin-3-yl)pyrimidin-4-yl)-5-hydroxypiperidin-3-yl)methyl)methanesulfonamide], the Ki in test [1] (setting [4]) fell in the range of 0.01 to 1 µM. Besides, in test [2] (compounds of Formula II), the half-inhibitory concentration (IC50) fell in the range of 0.5 to 5 µM.

In turn, `FC(F)(F)c1cn2c(-c3nccc(N4CCCC(c5cn[nH]c5)C4)n3)cnc2cn1` (stereo not shown) [IV-59, 3-(4-(3-(1H-Pyrazol-4-yl)piperidin-1-yl)pyrimidin-2-yl)-6-(trifluoromethyl)imidazo[1,2-a]pyrazine] displayed a Ki in test [1] (setting [3]) of under 0.01 µM. The compound further returned a half-inhibitory concentration (IC50) in test [2] (compounds of Formula IV) of under 0.5 µM.

Take `NC(=O)C1COCCN(c2ccnc(-c3cnc4cnc(C(F)F)cn34)n2)C1` (stereo not shown) [IV-117, 4-(2-(6-(Difluoromethyl)imidazo[1,2-a]pyrazin-3-yl)pyrimidin-4-yl)-1,4-oxazepane-6-carboxamide]: in test [1] (setting [3]), the Ki was 0.1 to 1 µM. Moreover, the concentration for half-maximal inhibition (IC50) in test [2] (compounds of Formula IV) is over 5 µM.

In turn, `CS(=O)(=O)NCC1CCCN(c2cc(-c3cnc4ccc(C(F)F)nn34)cc(N3CC(O)C3)n2)C1` (stereo not shown) [II-85, N-((1-(4-(6-(Difluoromethyl)imidazo[1,2-b]pyridazin-3-yl)-6-(3-hydroxyazetidin-1-yl)pyridin-2-yl)piperidin-3-yl)methyl)methanesulfonamide] came in with a Ki in test [1] (setting [4]) of under 0.01 µM. In test [2] (compounds of Formula II), this compound had an IC50 of 0.5 to 5 µM.

In the case of `FC(F)(F)c1ccc2ncc(-c3ccnc(N4CCCC(c5c[nH]cn5)C4)c3)n2n1` (stereo not shown) [II-740], in test [1] (setting [4]), the Ki was under 0.01 µM. The compound also showed a half-maximal inhibitory concentration (IC50) in test [2] (compounds of Formula II) of under 0.5 µM.

The compound `CC(O)c1ccc2ncc(-c3cc(N4CCO[C@H](CNS(C)(=O)=O)C4)ncn3)n2n1` (stereo partly drawn) [II-338, N-(((2S)-4-(6-(6-(1-Hydroxyethyl)imidazo[1,2-b]pyridazin-3-yl)pyrimidin-4-yl)morpholin-2-yl)methyl)methanesulfonamide trifluoroacetate] displayed a Ki in test [1] (setting [4]) of 0.01 to 1 µM. Also, the IC50 in test [2] (compounds of Formula II) was over 5 µM.

For `NC(=O)CC1CCCN(c2cc(-c3cnc4ccc(C(F)F)nn34)ccn2)C1` (stereo not shown) [II-145, 2-(1-(4-(6-(Difluoromethyl)imidazo[1,2-b]pyridazin-3-yl)pyridin-2-yl)piperidin-3-yl)acetamide], the Ki in test [1] (setting [4]) fell in the range of 0.01 to 1 µM. For the same compound, the IC50 in test [2] (compounds of Formula II) was in the range of 0.5 to 5 µM.

`NC(=O)c1cn2c(-c3cccc(-c4cccc5[nH]ccc45)n3)cnc2cn1` [IV-225, 3-(6-(1H-Indol-4-yl)pyridin-2-yl)imidazo[1,2-a]pyrazine-6-carboxamide]: in test [1] (setting [3]), the Ki lay within 0.01 to 0.1 µM. Moreover, the IC50 in test [2] (compounds of Formula IV) is 0.5 to 5 µM.

Take `NS(=O)(=O)N1CC2CCN(c3cc(-c4cnc5ccc(C(F)F)nn45)ncn3)C2C1` (stereo not shown) [II-286, 1-(6-(6-(Difluoromethyl)imidazo[1,2-b]pyridazin-3-yl)pyrimidin-4-yl)hexahydropyrrolo[3,4-b]pyrrole-5(1H)-sulfonamide]: in test [1] (setting [4]), the Ki was 0.01 to 1 µM. The concentration for half-maximal inhibition (IC50) in test [2] (compounds of Formula II) was over 5 µM.

With `CS(=O)(=O)Nc1cccc(-c2ccnc(-c3cnc4cnc(C(F)F)cn34)n2)c1` [IV-147, N-(3-(2-(6-(Difluoromethyl)imidazo[1,2-a]pyrazin-3-yl)pyrimidin-4-yl)phenyl)methanesulfonamide], the Ki in test [1] (setting [3]) fell in the range of 0.1 to 1 µM. The compound also came in with a 50% inhibitory concentration (IC50) in test [2] (compounds of Formula IV) of over 5 µM.

Take `Cc1n[nH]cc1C1CCCN(c2ccnc(-c3cnc4cnc(C(F)F)cn34)n2)C1` (stereo not shown) [IV-97, 6-(Difluoromethyl)-3-(4-(3-(3-methyl-1H-pyrazol-4-yl)piperidin-1-yl)pyrimidin-2-yl)imidazo[1,2-a]pyrazine]: the Ki in test [1] (setting [3]) lay within 0.01 to 0.1 µM. In test [2] (compounds of Formula IV), this compound showed an IC50 of over 5 µM.

As for `C[C@H]1CN(c2ccnc(-c3cnc4cnc(C(F)(F)F)cn34)n2)C[C@@H](CNS(C)(=O)=O)C1(F)F` [IV-17, N-(((3S,5S)-4,4-Difluoro-5-methyl-1-(2-(6-(trifluoromethyl)imidazo[1,2-a]pyrazin-3-yl)pyrimidin-4-yl)piperidin-3-yl)methyl)methanesulfonamide], the Ki in test [1] (setting [3]) lay within 0.1 to 1 µM. Moreover, the IC50 in test [2] (compounds of Formula IV) was over 5 µM.

Regarding `NS(=O)(=O)N1CCCN(c2cc(-c3cnc4ccc(C(F)F)nn34)ncn2)CC1` [II-24, 4-(6-(6-(Difluoromethyl)imidazo[1,2-b]pyridazin-3-yl)pyrimidin-4-yl)-1,4-diazepane-1-sulfonamide], the Ki in test [1] (setting [4]) lay in the range of 0.01 to 1 µM. In test [2] (compounds of Formula II), this compound showed an IC50 of over 5 µM.
